Test results reported in US20130203662A1, “Mini-Hepcidin Peptides and Methods of Using Thereof” (priority 2008, published 2013).
Read-outs that look alike come from different tables or passages of the source. One block for each compound: values may come before it. Square brackets hold non-standard residues; d marks the D form. Ends that are not written are not given here. Peptide text beside a SMILES is read from it. * marks the point of attachment. PEG12 = NCCOCCOCCOCCOCCOCCOCCOCCOCCOCCOCCOCCOCCC(=O)O; Oic = O=C(O)[C@@H]1C[C@@H]2CCCC[C@@H]2N1; Dip = N[C@H](C(=O)O)C(c1ccccc1)c1ccccc1; Palmitoyl = CCCCCCCCCCCCCCCC(=O)*; β3hF = N[C@H](CC(=O)O)Cc1ccccc1; β3hP = O=C(O)C[C@@H]1CCCN1; Dap = NC[C@H](N)C(=O)O

Experiments:
C57/B16J mice = test: Serum iron assay in mice after peptide administration; format: in vivo
Protocol: Serum iron assay. The decrease in serum iron after peptide administration is the principal measure of hepcidin activity. Thus, as provided herein, the hepcidin activity of selected peptides of the present invention were assayed in vivo by measuring serum iron in test subjects. […] Two weeks before the experiment, the mice were switched to a diet containing about 2-4 ppm iron (Harlan Teklad, Indianapolis, Ind.) in order to suppress endogenous hepcidin. Peptide stocks were diluted to desired concentrations in sterile phosphate buffered saline (PBS) or other diluents as described next. […] Mice were sacrificed 4 hours later, blood was collected by cardiac puncture, and serum was separated using MICROTAINER tubes (Becton Dickinson, Franklin Lakes, N.J.). Serum iron was determined by using a colorimetric assay (Diagnostic Chemicals, Oxford, Conn.), which was modified for the microplate format so that 10 μl serum was used per measurement. The results were expressed as the percentage of decrease in serum iron when compared with the average value of serum iron levels in PBS-treated mice.

[1] = molecular target: T1, ferroportin fused to green fluorescent protein (ECR293/Fpn-GFP cells) (Mus musculus, UniProt Q9JHI9); test: Flow cytometry of ferroportin-GFP internalization and degradation in ECR293/Fpn-GFP cells; format: cell-based; settings: for DC50: read-out: EC50 (the source's name); for relative hepcidin activity of substitutions in Hep25: Hep25 variants, FIG. 1, 2A, 2B
T1 sequence (Q9JHI9 1-570): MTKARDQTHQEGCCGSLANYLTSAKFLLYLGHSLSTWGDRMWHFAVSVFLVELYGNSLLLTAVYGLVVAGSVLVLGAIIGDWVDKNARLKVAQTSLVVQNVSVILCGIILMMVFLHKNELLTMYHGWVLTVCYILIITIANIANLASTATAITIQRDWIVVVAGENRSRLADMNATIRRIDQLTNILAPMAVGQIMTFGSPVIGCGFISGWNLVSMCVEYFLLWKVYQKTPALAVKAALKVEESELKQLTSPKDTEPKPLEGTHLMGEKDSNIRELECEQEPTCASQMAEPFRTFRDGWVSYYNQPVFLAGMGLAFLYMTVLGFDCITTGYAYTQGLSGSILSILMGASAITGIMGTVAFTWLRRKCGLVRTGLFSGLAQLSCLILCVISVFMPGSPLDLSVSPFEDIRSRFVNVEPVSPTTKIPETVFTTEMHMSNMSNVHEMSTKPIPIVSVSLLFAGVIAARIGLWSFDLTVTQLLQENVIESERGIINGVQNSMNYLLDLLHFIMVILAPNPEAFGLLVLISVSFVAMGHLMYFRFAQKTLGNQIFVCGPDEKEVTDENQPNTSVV
Protocol: In vitro activity may be measured by the dose-dependent loss of fluorescence of cells engineered to display ferroportin fused to green fluorescent protein as in Nemeth et al. (2006) Blood 107:328-33. […]
FLOW CYTOMETRY. The activity of peptides of the present invention was measured by flow cytometry as previously described. See Nemeth et al. (2006) Blood 107:328-333, which is herein incorporated by reference. ECR293/Fpn-GFP, a cell line stably transfected with a ponasterone-inducible ferroportin construct tagged at the C-terminus with green fluorescent protein was used. See Nemeth et al. (2004) Science 306:2090-2093, which is herein incorporated by reference. Briefly, the cells were plated on poly-D-lysine coated plates in the presence of 20 μM FAC, with or without 10 μM ponasterone. After 24 hours, ponasterone was washed off, and cells were treated with peptides for 24 hours. Cells were then trypsinized and resuspended at 1×10^6 cells/ml, and the intensity of green fluorescence was analyzed by flow cytometry. […] Cells not induced with ponasterone to express Fpn-GFP were used to establish a gate to exclude background fluorescence. Cells induced with ponasterone, but not treated with any peptides, were used as the positive control. Each peptide was tested over the range of concentrations (0, 0.01, 0.03, 0.1, 0.3, 1, 3 and 10 μM). Each peptide treatment was repeated independently 3 to 6 times.

[2] = concentration eliciting 50% of maximal loss of fluorescence generated by reference Hep25, 24 hours
[3] = i.p., 20 nmoles in liposomal solution, 4 hours
[4] = flow-cytometry assay of ferroportin-GFP internalization, FIG. 3

Compound: CC[C@H](C)[C@H](NC(=O)[C@H](CS)NC(=O)[C@@H](NC(=O)[C@@H]1CCCN1C(=O)[C@H](Cc1ccccc1)NC(=O)[C@H](Cc1c[nH]cn1)NC(=O)[C@@H](NC(=O)[C@@H](N)CC(=O)O)[C@@H](C)O)[C@@H](C)CC)C(=O)N[C@@H](Cc1ccccc1)C(N)=O [Hep9]
serum iron (C57/B16J mice; i.p., 50 μg per mouse in PBS, 4 hours, vs PBS): did not result in a serum iron decrease

Compound: CC[C@H](C)[C@H](NC(=O)[C@H](CS)NC(=O)[C@@H](NC(=O)[C@@H]1CCCN1C(=O)[C@H](Cc1ccccc1)NC(=O)[C@H](Cc1c[nH]cn1)NC(=O)[C@@H](NC(=O)[C@@H](N)CC(=O)O)[C@@H](C)O)[C@@H](C)CC)C(=O)N[C@H](CC(=O)N1CCC[C@@H]1C(=O)N1CCC[C@H]1CC(=O)N[C@@H](CCCNC(=N)N)C(N)=O)Cc1ccccc1 [Pr22] (H-DTHFPICI[β3hF][dP][β3hP]R-NH2)
EC50 [1, 2]: 600 nM

Compound: CCCCCCCCCCCCCCCC(=O)NCCOCCOCCOCCOCCOCCOCCOCCOCCOCCOCCOCCOCCC(=O)N[C@H](Cc1ccccc1)C(=O)N[C@@H](C(=O)N[C@H](CS)C(=O)N[C@@H](C(=O)N1CCC[C@@H]1C(=O)N[C@H](Cc1ccccc1)C(=O)N[C@H](Cc1c[nH]cn1)C(=O)N[C@@H](C(=O)N[C@H](CC(=O)O)C(N)=O)[C@H](C)O)[C@H](C)CC)[C@H](C)CC [Pr27]
serum iron (C57/B16J mice; i.p., 20 nmoles in PBS, 4 hours): serum iron decrease comparable to that caused by i.p. administration of 20 nmoles Hep25 | serum iron (C57/B16J mice; [3]): serum iron decrease similar to that caused by i.p. administration of 20 nmoles Hep25 | serum iron (C57/B16J mice; i.p., 200 nmoles in PBS, 4 hours): even greater decrease in serum iron concentrations | serum iron (C57/B16J mice; oral by gavage, 200 nmoles in cremophore EL solution, vs PBS in same formulation): caused a decrease in serum iron in mice

Compound: CCCCCCCCCCCCCCCC(=O)NC[C@H](NC(=O)CCCCCCCCCCCCCCC)C(=O)NCCOCCOCCOCCOCCOCCOCCOCCOCCOCCOCCOCCOCCC(=O)N[C@H](Cc1ccccc1)C(=O)N[C@@H](C(=O)N[C@H](CS)C(=O)N[C@@H](C(=O)N1CCC[C@@H]1C(=O)N[C@H](Cc1ccccc1)C(=O)N[C@H](Cc1c[nH]cn1)C(=O)N[C@@H](C(=O)N[C@H](CC(=O)O)C(N)=O)[C@H](C)O)[C@H](C)CC)[C@H](C)CC [Pr28] (Palmitoyl-[Dap](Palmitoyl)[PEG12][dF][dI][dC][dI][dP][dF][dH][dT][dD]-NH2)
serum iron (C57/B16J mice; [3]): lesser ability to decrease serum iron than Pr27

Compound: CC[C@H](C)[C@H](NC(=O)[C@H](CS)NC(=O)[C@@H](NC(=O)[C@@H]1CCCN1C(=O)[C@@H](NC(=O)[C@@H](N)CC(=O)O)C(c1ccccc1)c1ccccc1)[C@@H](C)CC)C(=O)N[C@H](C(N)=O)C(c1ccccc1)c1ccccc1 [Pr41] (H-D[Dip]PICI[Dip]-NH2)
EC50 [1]: 300 nM

Compound: DTHFPIC-NH2 [Hep7]
DC50 [1, 2]: > 10000 nM

Compound: F4Y: Hep25 with F4 substituted by tyrosine (DTHYPICIFCCGCCHRSKCGMCCKT)
relative hepcidin activity of substitutions in Hep25 [1]: substantial loss of hepcidin activity

Compound: HFPIC-NH2 [Hep5]
DC50 [1, 2]: > 10000 nM

Compound: HFPICI-NH2 [Hep6]
DC50 [1, 2]: 1000 nM

Compound: HFPICIF-NH2 [Hep7ΔDT]
DC50 [1, 2]: 700 nM

Compound: T2A: Hep25 with alanine substitution of residue T2 (DAHFPICIFCCGCCHRSKCGMCCKT)
relative hepcidin activity of substitutions in Hep25 [1]: did not substantially impact hepcidin activity

More lines, now with the values ahead:

EC50 [1, 2]: 1000 nM
Compound: CC[C@H](C)[C@H](NC(=O)[C@H](CS)NC(=O)[C@@H](NC(=O)[C@@H]1CCCN1C(=O)[C@H](Cc1ccccc1)NC(=O)[C@H](Cc1c[nH]cn1)NC(=O)[C@@H](NC(=O)[C@@H](N)CC(=O)O)[C@@H](C)O)[C@@H](C)CC)C(=O)N[C@@H](Cc1ccccc1)C(=O)N1CCC[C@@H]1C(=O)N1CCC[C@H]1CC(=O)N[C@@H](CCCNC(=N)N)C(N)=O [Pr18]

EC50 [1, 2]: 700 nM
Compound: CC[C@H](C)[C@H](NC(=O)[C@H](CS)NC(=O)[C@@H](NC(=O)[C@@H]1CCCN1C(=O)[C@H](Cc1ccccc1)NC(=O)[C@H](Cc1c[nH]cn1)NC(=O)[C@@H](NC(=O)[C@@H](N)CC(=O)O)[C@@H](C)O)[C@@H](C)CC)C(=O)N[C@H](CC(=O)N1CCC[C@@H]1C(=O)N1CCC[C@H]1C(=O)N[C@@H](CCCCN)C(N)=O)Cc1ccccc1 [Pr19] (H-DTHFPICI[β3hF][dP]PK-NH2)

DC50 [1, 2]: 200 nM
Compound: CC[C@H](C)[C@H](NC(=O)[C@H](CS)NC(=O)[C@@H](NC(=O)[C@@H]1CCCN1C(=O)[C@H](Cc1ccccc1)NC(=O)[C@H](Cc1c[nH]cn1)NC(=O)[C@@H](NC(=O)[C@@H](N)CC(=O)O)[C@@H](C)O)[C@@H](C)CC)C(=O)N[C@H](CC(=O)N1CCC[C@@H]1C(=O)N1CCC[C@H]1C(=O)N[C@@H](CCCNC(=N)N)C(N)=O)Cc1ccccc1 [Pr20] (H-DTHFPICI[β3hF][dP]PR-NH2)

DC50 [1, 2]: 500 nM
Compound: CC[C@H](C)[C@H](NC(=O)[C@H](CS)NC(=O)[C@@H](NC(=O)[C@@H]1CCCN1C(=O)[C@H](Cc1ccccc1)NC(=O)[C@H](Cc1c[nH]cn1)NC(=O)[C@@H](NC(=O)[C@@H](N)CC(=O)O)[C@@H](C)O)[C@@H](C)CC)C(=O)N[C@H](CC(=O)N1CCC[C@@H]1C(=O)N1CCC[C@H]1CC(=O)N[C@@H](CCCCN)C(N)=O)Cc1ccccc1 [Pr21] (H-DTHFPICI[β3hF][dP][β3hP]K-NH2)

EC50 [1, 2]: 35 nM
Compound: CC[C@H](C)[C@H](NC(=O)[C@H](CS)NC(=O)[C@@H](NC(=O)[C@@H]1CCCN1C(=O)[C@@H](NC(=O)[C@H](Cc1c[nH]cn1)NC(=O)[C@@H](NC(=O)[C@@H](N)CC(=O)O)[C@@H](C)O)C(c1ccccc1)c1ccccc1)[C@@H](C)CC)C(=O)N[C@H](C(N)=O)C(c1ccccc1)c1ccccc1 [Pr39] (H-DTH[Dip]PICI[Dip]-NH2)

EC50 [1, 2]: 30 nM
Compound: C[C@@H](O)[C@H](NC(=O)[C@@H](N)CC(=O)O)C(=O)N[C@@H](Cc1c[nH]cn1)C(=O)N[C@H](C(=O)N1CCC[C@H]1C(=O)N[C@@H](CCCNC(=N)N)C(=O)N[C@@H](CS)C(=O)N[C@@H](CCCNC(=N)N)C(=O)N[C@H](C(N)=O)C(c1ccccc1)c1ccccc1)C(c1ccccc1)c1ccccc1 [Pr42] (H-DTH[Dip]PRCR[Dip]-NH2; N-terminus assumed)

EC50 [1, 2]: 200 nM
Compound: C[C@@H](O)[C@H](NC(=O)[C@@H](N)CC(=O)O)C(=O)N[C@@H](Cc1c[nH]cn1)C(=O)N[C@H](C(=O)N1CCC[C@H]1C(=O)N[C@H](CCCNC(=N)N)C(=O)N[C@@H](CS)C(=O)N[C@H](CCCNC(=N)N)C(=O)N[C@H](C(N)=O)C(c1ccccc1)c1ccccc1)C(c1ccccc1)c1ccccc1 [Pr43] (H-DTH[Dip]P[dR]C[dR][Dip]-NH2)

DC50 [1, 2]: 30 nM
Compound: CC[C@H](C)[C@H](NC(=O)[C@H](CS)NC(=O)[C@@H](NC(=O)[C@@H]1C[C@@H]2CCCC[C@@H]2N1C(=O)[C@@H](NC(=O)[C@H](Cc1c[nH]cn1)NC(=O)[C@@H](NC(=O)[C@@H](N)CC(=O)O)[C@@H](C)O)C(c1ccccc1)c1ccccc1)[C@@H](C)CC)C(=O)N[C@@H](Cc1ccccc1)C(N)=O [Pr44] (H-DTH[Dip][Oic]ICIF-NH2; N-terminus assumed)

DC50 [1, 2]: 150 nM
Compound: CC[C@H](C)[C@H](NC(=O)[C@H](CS)NC(=O)[C@@H](NC(=O)[C@@H]1C[C@@H]2CCCC[C@@H]2N1C(=O)[C@@H](NC(=O)[C@H](Cc1c[nH]cn1)NC(=O)[C@@H](NC(=O)[C@@H](N)CC(=O)O)[C@@H](C)O)C(c1ccccc1)c1ccccc1)[C@@H](C)CC)C(=O)N[C@H](C(N)=O)C(c1ccccc1)c1ccccc1 [Pr45] (H-DTH[Dip][Oic]ICI[Dip]-NH2; N-terminus assumed)

DC50 [1, 2]: 900 nM
Compound: CC[C@H](C)[C@H](NC(=O)[C@H](CCS)NC(=O)[C@@H](NC(=O)[C@@H]1CCCN1C(=O)[C@H](Cc1ccccc1)NC(=O)[C@H](Cc1c[nH]cn1)NC(=O)[C@@H](NC(=O)[C@@H](N)CC(=O)O)[C@@H](C)O)[C@@H](C)CC)C(=O)N[C@@H](Cc1ccccc1)C(N)=O [homoC]

DC50 [1, 2]: > 3000 nM
Compound: DTHAPICIF-NH2 [Hep9F4A]

DC50 [1, 2]: > 10000 nM
Compound: DTHFPIAIF-NH2 [Hep9-C7A]

hepcidin activity of mini-hepcidins relative to Hep25 ([1]; FIG. 3 and FIG. 4): quite active | DC50 [1, 2]: 100 nM | potency relative to Hep25 on a mass basis (times less potent) [1, 4]: about 4 times | potency relative to Hep25 on a molar basis (times less potent) [1, 4]: about 10 times
Compound: DTHFPIAIFC-NH2 [Hep10]

DC50 [1, 2]: 2000 nM
Compound: DTHFPICI-NH2 [Hep8]

DC50 [1, 2]: > 10000 nM
Compound: DTHFPISIF-NH2 [Hep9-C7S]
